The results in this text go back to patent US9375004B2 (Bayer Intellectual Property GmbH, priority 2010, dated 2016).

Data set [1] concerns Venturia inaequalis. The experiment in a line: Venturia test (apples)/preventive. The settings on record: 100 ppm, preventive, evaluated 10 days after inoculation.
Description: Venturia Test (Apples)/Preventive
(§1) Solvent: 24.5 parts by weight of acetone • 24.5 parts by weight of N,N-dimethylformamide
(§2) Emulsifier: 1 part by weight of alkylaryl polyglycol ether
After the spray coating has dried on, the plants are inoculated with an aqueous conidia suspension of the causal agent of apple scab (Venturia inaequalis) and then remain for 1 day in an incubation cabinet at approximately 20° C. and a relative atmospheric humidity of 100%.
The plants are then placed in a greenhouse at approximately 21° C. and a relative atmospheric humidity of approximately 90%.
The test is evaluated 10 days after the inoculation.
A short description of data set [2]: logP by HPLC on reversed-phase column (EEC Directive 79/831 Annex V.A8). The settings on record: HPLC on reversed-phase column (C 18), EEC Directive 79/831 Annex V.A8.
The subject of data set [3] is Alternaria solani. The experiment in a line: Alternaria test (tomato)/preventive. The class given is in vivo. The settings on record: 500 ppm, preventive, evaluated 7 days after inoculation.
The subject of data set [4] is Pyrenophora teres. Briefly: Pyrenophora teres-test (barley)/preventive. The class given is in vivo. The settings on record: 500 ppm, preventive, evaluated 8 days after inoculation.
For data set [5], the system named is Puccinia triticina. Briefly: Puccinia triticina-test (wheat)/preventive. The format is in vivo. The settings on record: 500 ppm, preventive, evaluated 8 days after inoculation.
The subject of data set [6] is Uromyces appendiculatus. As to conditions: 100 ppm, beans, preventive, evaluated 10 days after inoculation.
Data set [7] has as its system Septoria tritici. The experiment in a line: Septoria tritici-test (wheat)/preventive. The format is in vivo. As to conditions: 500 ppm, preventive, evaluated 21 days after inoculation.
The test system of data set [8] is Sphaerotheca fuliginea. Briefly: Sphaerotheca test (cucumber)/preventive. The settings on record: 500 ppm, preventive, evaluated 7 days after inoculation. The class given is in vivo.
Data set [9] has as its system Botrytis cinerea. The experiment in a line: Botrytis test (beans)/preventive. The settings on record: 100 ppm, preventive, lesion size 2 days after inoculation.
Description: Botrytis Test (Beans)/Preventive
as §1, §2
After the spray coating has dried on, 2 small pieces of agar covered with growth of Botrytis cinerea are placed on each leaf. The inoculated plants are placed in a darkened chamber at 20° C. and a relative atmospheric humidity of 100%.
2 days after the inoculation, the size of the lesions on the leaves is evaluated.
The test system of data set [10] is Fusarium nivale (var. majus). The experiment in a line: Fusarium nivale (var. majus)-test (wheat)/preventive. As to conditions: preventive, evaluated 5 days after inoculation.

As usually defined, the logP is a log measure of how a compound divides between an organic and an aqueous phase. Read a high logP as higher lipophilicity. Consider `COC(C)(C)CCc1ccccc1NC(=O)c1c(C(F)F)nn(C)c1F` [Example 23], for which the Efficacy in [1] was 100%; in data set [3], 70%; in [4] it was 71%; in [5] it was 100%; in [6] it was 90%; in data set [7], 100%. Also, in data set [2], the log partition coefficient (logP) turned out to be 2.74.
Take `Cn1nc(C(F)F)c(C(=O)Nc2ccc(F)cc2OCC(C)(C)C)c1F` [Example 28]: the Efficacy in data set [1] amounted to 100%; in [3], 70%; in [4], 71%; in data set [5] it was 100%; in data set [6], 94%; in data set [7], 90%. Moreover, the log partition coefficient (logP) in [2] amounted to 4.08.
Regarding `Cn1nc(C(F)F)c(C(=O)Nc2cccc3c2C2CCC3C2=C(Cl)Cl)c1Cl` (stereo not shown) [Example 71], the Efficacy is listed as 100% in data set [1]; 80% in data set [3]; 100% in [8]; 100% in [4]; 94% in data set [9]; 100% in data set [5]. The results for the Efficacy in data set [10] (250 ppm), in data set [10] (500 ppm) and in [6] were 94%, 94% and 100%, respectively. The same molecule registered a logP in data set [2] of 4.21.
Consider `Cn1nc(C(F)F)c(C(=O)Nc2cccc3c2C2CCC3C2=C(Cl)Cl)c1F` (stereo not shown) [Example 72], for which the Efficacy worked out at 100% in data set [1]; 70% in data set [3]; 100% in data set [8]; 100% in data set [4]; 100% in data set [9]; 94% in data set [5]. Moreover, the Efficacy in data set [10] (250 ppm), in [10] (500 ppm) and in [6] was 100% throughout. The molecule further registered a lipophilicity (logP) in data set [2] of 3.99.
As for `Cn1nc(C(F)F)c(C(=O)Nc2ccccc2-c2ccc(Cl)cc2)c1F` [Example 85], the Efficacy is reported as 100% in data set [1]; 95% in data set [3]; 98% in [8]; 100% in data set [4]; 100% in data set [9]; 100% in [5]. Also, the Efficacy in data set [10] (500 ppm) and in data set [6] was 100% throughout. In data set [2], this molecule came in with a lipophilicity (logP) of 3.57.
As for `Cn1nc(C(F)F)c(C(=O)Nc2ccccc2-c2cccc(Cl)c2)c1F` [Example 86], the Efficacy in data set [1] is 100%; in [3], 95%; in [4], 100%; in data set [9], 100%; in [5], 100%; in data set [10] (500 ppm), 71%. Besides, the Efficacy in data set [6] was found to be 100%; in data set [7] it was 86%. In data set [2], this molecule registered a lipophilicity (logP) of 3.55.
As for `Cn1nc(C(F)F)c(C(=O)Nc2ccccc2-c2ccc(Cl)cc2)c1Cl` [Example 88], the Efficacy was 100% in data set [1]; 94% in data set [3]; 100% in [8]; 100% in data set [4]; 92% in [9]; 100% in [5]. Moreover, the Efficacy in data set [10] (500 ppm) and in [6] was 100% throughout. Besides, the logP in data set [2] was 3.85.
`Cn1nc(C(F)F)c(C(=O)Nc2ccccc2-c2ccc(F)c(F)c2)c1Cl` [Example 89]: the Efficacy was found to be 100% in data set [1]; 94% in [3]; 100% in data set [8]; 100% in data set [4]; 100% in [9]; 100% in [5]. Besides, the Efficacy in data set [10] (500 ppm) and in data set [6] was 100% in each case. Further, the logP in data set [2] is listed as 3.40.
`Cn1nc(C(F)F)c(C(=O)Nc2ccccc2-c2ccc(F)c(F)c2)c1F` [Example 90]: the lipophilicity (logP) in data set [2] was 3.20. Also, the Efficacy in data set [3] was determined as 90%; in data set [8], 95%; in [4], 100%; in data set [5], 100%; in data set [7] it was 86%.
In the case of `Cn1nc(C(F)F)c(C(=O)Nc2ccccc2-c2ccc(Cl)c(F)c2)c1F` [Example 100], the Efficacy in data set [1] amounted to 99%; in data set [3] it was 80%; in data set [8], 100%; in [4] it was 100%; in data set [9] it was 99%; in data set [5] it was 100%. The Efficacy is 90% in data set [10] (500 ppm), 99% in [6] and 100% in data set [7]. Further, the lipophilicity (logP) in data set [2] was determined as 3.45.
On to `Cn1nc(C(F)F)c(C(=S)Nc2ccccc2-c2cc(F)c(F)c(F)c2)c1F` [Example 106], for which the Efficacy in [1] was found to be 100%; in data set [3], 90%; in [8], 98%; in data set [4], 100%; in [5], 100%; in data set [6], 100%. In data set [7], this molecule showed an Efficacy of 80%. In [2], the lipophilicity (logP) was 3.65.
For the molecule `Cn1nc(C(F)F)c(C(=O)Nc2ccc(F)cc2-c2ccc(C(F)(F)F)cc2)c1F` [Example 118], the Efficacy in data set [1], in data set [3], in data set [8], in data set [4], in data set [9] and in data set [5] was 100% throughout. Further, the Efficacy in data set [10] (500 ppm) stood at 71%; in data set [6] it was 95%; in data set [7], 86%. Further, the logP in data set [2] amounted to 3.60.
For the molecule `Cn1nc(C(F)F)c(C(=O)Nc2ccccc2-c2ccc(Cl)c(Cl)c2)c1F` [Example 125], the Efficacy in data set [1] is listed as 100%; in [3], 95%; in data set [8] it was 98%; in data set [4] it was 100%; in data set [9], 100%; in data set [5] it was 100%. In data set [6], this molecule yielded an Efficacy of 100%. Besides, the logP in [2] stood at 3.85.
On to `Cn1nc(C(F)F)c(C(=O)Nc2ccccc2-c2ccc(C(F)(F)F)c(F)c2)c1F` [Example 149], for which the Efficacy came to 100% in [1]; 100% in data set [3]; 100% in data set [8]; 100% in data set [4]; 99% in data set [9]; 100% in data set [5]. The Efficacy in [10] (500 ppm) was found to be 93%; in data set [6], 100%; in [7], 100%. For the same molecule, the lipophilicity (logP) in data set [2] is listed as 3.46.
`Cn1nc(C(F)F)c(C(=O)Nc2ccc(F)cc2-c2ccc(C(F)(F)F)c(F)c2)c1F` [Example 150]: the Efficacy in data set [1] is 100%; in data set [3], 89%; in data set [8], 100%; in data set [4], 100%; in data set [9], 100%; in data set [5], 100%. Also, the values for the Efficacy in [10] (500 ppm) and in data set [6] were 86% and 98%, respectively. This molecule showed a log partition coefficient (logP) in data set [2] of 3.66.
Regarding `Cn1nc(C(F)F)c(C(=S)Nc2ccccc2-c2ccc(C(F)(F)F)c(F)c2)c1Cl` [Example 151], the logP in [2] was 4.06. For the same molecule, the Efficacy came out at 95% in [3]; 98% in data set [8]; 100% in data set [4]; 100% in [5]; 100% in data set [10] (500 ppm); 93% in data set [7].
With `Cn1nc(C(F)F)c(C(=O)Nc2ccccc2-c2ccc(Br)c(Cl)c2)c1F` [Example 152], the Efficacy in data set [1] is recorded as 100%; in [3], 94%; in data set [8], 95%; in [4] it was 100%; in data set [9] it was 100%; in data set [5] it was 100%. The Efficacy in data set [10] (500 ppm) and in [6] was 100% throughout. Also, in [2], the logP was 3.83.
For `Cn1nc(C(F)F)c(C(=O)Nc2ccccc2-c2ccc(Br)c(Cl)c2)c1Cl` [Example 153], the Efficacy in data set [1] is given as 95%; in data set [3], 90%; in data set [8], 100%; in data set [4] it was 100%; in data set [9], 75%; in data set [5], 100%. Further, the Efficacy in data set [10] (500 ppm) was 93%; in data set [6], 100%; in [7], 86%. This molecule gave a logP in data set [2] of 4.19.
In data set [2], `Cn1nc(C(F)F)c(C(=O)Nc2ccccc2OCc2ccc(Cl)cc2Cl)c1Cl` [Example 163] showed a logP of 4.81. For the same molecule, the results for the Efficacy in data set [4], in data set [5] and in [7] were 92%, 71% and 71%, respectively.
Regarding `Cn1nc(C(F)F)c(C(=O)Nc2cccc(-c3ccc(Cl)cc3)c2)c1Cl` [Example 208], the log partition coefficient (logP) in data set [2] came out at 4.04. For the same molecule, the Efficacy in data set [4], in data set [5], in data set [10] (500 ppm) and in data set [7] was 100% each time.
